# Data from ChEMBL document CHEMBL1131488, “Dihydropyrancarboxamides related to zanamivir: a new series of inhibitors of influenza virus sialidases. 1. Discovery, synthesis, biological activity, and structure-activity relationships of 4-guanidino- and 4-amino-4H-pyran-6-carboxamides” (J Med Chem, 1998).
# pIC50: −log10 of the molar value.
# Experiments:
# [1] = molecular target: Neuraminidase (Influenza A virus (A/Puerto Rico/8/1934(H1N1)), UniProt P03468); assay: Inhibition of sialidase (Flu A, 5 nM)
# Sequence of Neuraminidase (Influenza A virus (A/Puerto Rico/8/1934(H1N1)), UniProt P03468) (P03468 whole entry): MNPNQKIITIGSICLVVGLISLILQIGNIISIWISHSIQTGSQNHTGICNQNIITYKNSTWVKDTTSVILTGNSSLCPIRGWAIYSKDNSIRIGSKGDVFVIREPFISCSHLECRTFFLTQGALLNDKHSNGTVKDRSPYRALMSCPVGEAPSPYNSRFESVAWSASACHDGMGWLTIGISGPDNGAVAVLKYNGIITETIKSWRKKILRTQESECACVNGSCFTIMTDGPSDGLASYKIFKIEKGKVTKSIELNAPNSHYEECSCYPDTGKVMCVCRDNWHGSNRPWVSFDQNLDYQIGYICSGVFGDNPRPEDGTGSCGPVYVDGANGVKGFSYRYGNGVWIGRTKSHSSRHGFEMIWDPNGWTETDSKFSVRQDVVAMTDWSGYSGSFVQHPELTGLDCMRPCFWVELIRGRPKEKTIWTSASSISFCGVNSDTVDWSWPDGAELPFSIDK
# [2] = molecular target: T1, Neuraminidase (Influenza B virus (strain B/Lee/1940), UniProt P03474)
# T1 sequence (P03474 whole entry): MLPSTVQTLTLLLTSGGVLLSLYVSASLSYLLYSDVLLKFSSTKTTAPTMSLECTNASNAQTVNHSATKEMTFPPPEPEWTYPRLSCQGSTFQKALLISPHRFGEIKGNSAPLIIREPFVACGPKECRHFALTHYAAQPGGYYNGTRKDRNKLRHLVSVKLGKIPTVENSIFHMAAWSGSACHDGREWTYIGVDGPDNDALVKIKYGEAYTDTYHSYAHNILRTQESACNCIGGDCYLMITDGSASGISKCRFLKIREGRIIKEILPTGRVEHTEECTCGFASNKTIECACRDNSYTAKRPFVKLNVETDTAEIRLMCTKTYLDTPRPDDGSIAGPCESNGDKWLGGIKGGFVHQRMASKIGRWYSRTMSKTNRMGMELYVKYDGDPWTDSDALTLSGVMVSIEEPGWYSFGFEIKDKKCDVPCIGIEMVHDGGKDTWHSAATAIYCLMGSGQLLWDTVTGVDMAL
# [3] = molecular target: T1, Neuraminidase; assay: Inhibition of influenza B virus sialidase activity
# [4] = molecular target: Neuraminidase (Influenza A virus (A/Puerto Rico/8/1934(H1N1)), UniProt P03468); assay: Inhibition of influenza A virus sialidase activity
# [5] = molecular target: Neuraminidase (Influenza A virus (A/Puerto Rico/8/1934(H1N1)), UniProt P03468)
# [6] = molecular target: Neuraminidase (Influenza A virus (A/Puerto Rico/8/1934(H1N1)), UniProt P03468); remark: listed apart in the source
# [7] = molecular target: Neuraminidase (Influenza A virus (A/Puerto Rico/8/1934(H1N1)), UniProt P03468); remark: listed apart in the source
# [8] = molecular target: Neuraminidase (Influenza A virus (A/Puerto Rico/8/1934(H1N1)), UniProt P03468); remark: listed apart in the source
# [9] = system: Mus musculus; assay: Compound was tested for in vivo efficacy in mouse model of influenza A virus A/Singapore/1/57 at dose of 1 mg/kg. (in); type: functional
# [10] = system: Mus musculus; assay: Compound was tested for in vivo efficacy in mouse model of influenza A virus A/Singapore/1/57 at dose of 50 mg/kg.(ip); type: functional
# [11] = Vss, volume of distribution at steady state at a dose of 10 mg/kg; type: ADME, organism-based; set-up: dose 10 mg/kg; details: in vivo, read-out: Vss
# [12] = t1/2, plasma elimination half life, the time taken for the plasma concentrations to fall by one half, once distribution is complete at a dose of 10 mg/kg; type: ADME, organism-based; set-up: dose 10 mg/kg
# [13] = system: Mus musculus; assay: Compound was tested for in vivo efficacy in mouse model of influenza A virus A/Singapore/1/57 at dose of 10 mg/kg.(ip); type: functional
# [14] = Clp, plasma clearance at a dose of 10 mg/kg; type: ADME, organism-based; set-up: dose 10 mg/kg; details: read-out: Clp
# [15] = molecular target: T1, Neuraminidase; remark: listed apart in the source
# [16] = molecular target: Neuraminidase (Influenza A virus (A/Puerto Rico/8/1934(H1N1)), UniProt P03468); remark: listed apart in the source
# [17] = system: Mus musculus; assay: Compound was tested for in vivo efficacy in mouse model of influenza A virus A/Singapore/1/57 at dose of 10 mg/kg.; type: functional
# [18] = t1/2, plasma elimination half life, the time taken for the plasma concentrations to fall by one half, once distribution is complete at a dose of 50 mg/kg; type: ADME, organism-based; set-up: dose 50 mg/kg
# [19] = Vss, volume of distribution at steady state at a dose of 50 mg/kg; type: ADME, organism-based; set-up: dose 50 mg/kg; details: in vivo, read-out: Vss
# [20] = system: Mus musculus; assay: Compound was tested for concentration of intranasally administered drug (10 mg/kg) which reduces virus titer by 90%; type: functional; details: inhaled or nasal
# [21] = Clp, plasma clearance at a dose of 50 mg/kg; type: ADME, organism-based; set-up: dose 50 mg/kg; details: read-out: Clp
# [22] = system: Mus musculus; assay: Compound was tested for in vivo efficacy in mouse model of influenza A virus A/Singapore/1/57 at dose of 1 mg/kg.; type: functional
# [23] = system: Mus musculus; assay: Compound was tested for in vivo efficacy in mouse model of influenza A virus A/Singapore/1/57 at dose of 50 mg/kg.; type: functional
structure (smiles),measurement,setting,value
C=CCN(CC=C)C(=O)[C@@H]1OC(C(=O)O)=C[C@H](N)[C@H]1NC(C)=O,pIC50,[1],7.40
same,pIC50,[2],5.08
CCCN(CCc1ccccc1OC)C(=O)[C@@H]1OC(C(=O)O)=C[C@H](N)[C@H]1NC(C)=O,pIC50,[3],4.92
same,pIC50,[4],8.05
CC(=O)N[C@@H]1[C@@H](N)C=C(C(=O)O)O[C@H]1C(=O)N(CCc1ccccc1)C(C)C,pIC50,[3],5.10
same,pIC50,[4],8.10
CCC1CCC(CC)N1C(=O)[C@@H]1OC(C(=O)O)=C[C@H](N)[C@H]1NC(C)=O (some centres not stated),pIC50,[3],4.59
same,pIC50,[4],6.54
CCCN(CCc1ccc(OC)cc1)C(=O)[C@@H]1OC(C(=O)O)=C[C@H](N)[C@H]1NC(C)=O,pIC50,[3],5.48
same,pIC50,[4],8.10
CCCN(C)C(=O)[C@@H]1OC(C(=O)O)=C[C@H](N)[C@H]1NC(C)=O,IC50,[5],3700 nM
same,IC50,[6],180 nM
same,pIC50,[7],5.33
same,IC50,[8],110 nM
CCCCCCCCCN(CCC)C(=O)[C@@H]1OC(C(=O)O)=C[C@H](N=C(N)N)[C@H]1NC(C)=O,Reduction in virus titer,[9],72%
same,pIC50,[3],< 5.52
same,Reduction in virus titer,[10],50%
same,Vd,[11],1.2 L/kg
same,half-life,[12],55.2 min
same,Reduction in virus titer,[13],>99.99%
same,clearance,[14],21.8 mL/min/kg
same,pIC50,[4],8.15
CC(=O)N[C@@H]1[C@@H](NC(=N)N)C=C(C(=O)O)O[C@H]1C(=O)NCCN,pIC50,[1],4.70
CC(=O)N[C@@H]1[C@@H](N)C=C(C(=O)O)O[C@H]1C(=O)NCC(=O)O,pIC50,[1],< 3.32
CCCN(CCc1ccc(O)cc1)C(=O)[C@@H]1OC(C(=O)O)=C[C@H](N)[C@H]1NC(C)=O,pIC50,[3],5.72
same,pIC50,[4],8.05
CCCN(CCc1ccc(C(C)C)cc1)C(=O)[C@@H]1OC(C(=O)O)=C[C@H](N)[C@H]1NC(C)=O,pIC50,[3],5.21
same,pIC50,[4],7.92
CC(=O)N[C@@H]1[C@@H](N)C=C(C(=O)O)O[C@H]1C(=O)N1CCCC1C (some centres not stated),pIC50,[3],3.68
same,pIC50,[4],6.51
CCCN(CC)C(=O)[C@@H]1OC(C(=O)O)=C[C@H](N)[C@H]1NC(C)=O,pIC50,[3],6.39
CC(=O)N[C@@H]1[C@@H](N)C=C(C(=O)O)O[C@H]1C(=O)N(CCN=[N+]=[N-])CCc1ccccc1,pIC50,[15],4.55
same,pIC50,[16],8.05
CC(=O)N[C@@H]1[C@@H](N)C=C(C(=O)O)O[C@H]1C(=O)NC1CCCCC1,pIC50,[1],4.72
same,pIC50,[2],< 3.35
CCCN(CCc1ccc(Cl)cc1Cl)C(=O)[C@@H]1OC(C(=O)O)=C[C@H](N)[C@H]1NC(C)=O,pIC50,[3],4.80
same,pIC50,[4],8.22
CC(=O)N[C@@H]1[C@@H](N)C=C(C(=O)O)O[C@H]1C(=O)N(CCc1ccccc1)CC(N)=O,pIC50,[3],4.51
same,pIC50,[4],4.72
CC(=O)N[C@@H]1[C@@H](N)C=C(C(=O)O)O[C@H]1C(=O)NCCN,pIC50,[1],< 3.41
CC(=O)N[C@@H]1[C@@H](N)C=C(C(=O)O)O[C@H]1C(=O)N(CCc1ccccc1)CC(C)C,pIC50,[4],7.85
CCCN(CCC)C(=O)[C@@H]1OC(C(=O)O)=C[C@H](N)[C@H]1NC(C)=O,IC50,[5],8 nM
same,Reduction in virus titer,[17],99.84%
same,half-life,[18],21 min
same,IC50,[6],3 nM
same,Vd,[19],0.4 L/kg
same,pIC50,[7],7.52
same,ED90,[20],2.1 mg/kg
same,clearance,[21],12.5 mL/min/kg
same,IC50,[8],20 nM
same,Reduction in virus titer,[22],82%
CCN(CC)C(=O)[C@@H]1OC(C(=O)O)=C[C@H](NC(=N)N)[C@H]1NC(C)=O,Reduction in virus titer,[23],89%
